From paper PMC5427923, “A novel CCR2 antagonist inhibits atherogenesis in apoE deficient mice by achieving high receptor occupancy” (Scientific Reports, 2017)

Tested on: apoE−/− mice
Assay: Atherosclerotic lesion development in Western-type diet fed apoE−/− mice (carotid collar, aortic root)
Type: in vivo, mouse
Description: Male apoE^−/− mice (10–12 weeks old), obtained from the local animal breeding facility (Gorlaeus Laboratories, Leiden, The Netherlands), were fed a Western type diet, containing 0.25% cholesterol and 15% cocoabutter (SDS, Sussex, UK).
To determine the effect of the CCR2 antagonist on atherosclerotic lesion development, mice were fed a Western type diet, containing 0.25% cholesterol and 15% cocoabutter (SDS, Sussex, UK) throughout the experiment starting two week before surgery. Carotid artery plaque formation was induced by perivascular collar placement as described previously[46] and from the time of surgery, the mice received daily intraperitoneal injections containing 15a (5 mg/kg/day) or vehicle control (n = 9–10 per group). During the experiment, total body weight and weight gain were measured. Serum total cholesterol levels were determined using an enzymatic colorimetric assay according to manufacturer’s protocol (Roche Diagnostics). Precipath (standardized serum; Boehringer Mannheim, Germany) was used as an internal standard. Plasma cytokine levels were measured by ELISA according to manufacturer’s protocol (BD Biosciences). Blood was collected weekly via tail cut. Total cell count and cellular differentiation patterns in blood were analyzed using an automated XT-2000iV veterinary hematology analyzer (Sysmex Europe GMBH, Norderstedt, Germany). After erythrocyte lysis, blood leukocyte suspensions were stained for surface markers, after which their expression was determined by FACS analysis (FACS Canto, BD Biosciences). After 4 weeks of lesion development, the animals were anaesthetized and blood was collected. After in situ perfusion through the left cardiac chamber, the carotid arteries and hearts were harvested.
Carotid artery cryosections of 5 µm thick were prepared, which were stained with hematoxylin-eosin to determine plaque size and necrotic core size. Morphometric analysis was performed on sections throughout the atherosclerotic lesion (100 µm apart) and at the site of maximal stenosis using Leica Qwin image analysis software. The relative necrotic area was defined as the a-cellular, debris-rich plaque area as percentage of total plaque area, and also quantified using Leica QWin software.
The hearts were dissected just below the atria and sectioned perpendicular to the axis of the aorta, starting within the heart and working in the direction of the aortic arch. Once the aortic root was identified by the appearance of aortic valve leaflets, 10 µm sections were collected. Mean lesion area (in µm^2) of the aortic root was calculated from six Oil-Red-O stained sections in distal direction starting at the point where all three aortic valve leaflets first appeared.
Macrophage content of the lesions in carotid arteries and aortic roots was stained using a rat monoclonal MOMA2 antibody (1:1000, Serotec, Kidlington, Oxford, UK). Macrophage positive areas were analyzed using computer-assisted colour-gated analysis, and related to the total intimal surface area (Leica QWin). Liver cryosections of 10 µm thick were prepared and subsequently stained with hematoxylin-eosin to analyze liver morphology, which was assessed using a Leica DMRE microscope (Leica Ltd., Cambridge, England).

With `CC(C)[C@]1(C(=O)N2CCc3ccc(C(F)(F)F)cc3C2)CC[C@@H](N[C@@H]2CCc3cc(Br)ccc32)C1` [15a, ((1S,3R)-3-(((R)-5-bromo-2,3-dihydro-1H-inden-1-yl)amino)-1-isopropylcyclopentyl)(7-(trifluoromethyl)-3,4-dihydroisoquinolin-2(1H)-yl)methanone] the “atherosclerotic plaque size in the carotid artery at the site of maximal stenosis” value (5 mg/kg/day i.p., 4 weeks, controls 64.4 ± 11.8) was 17.6 ± 4.1 *10^3 µm^2, the relative necrotic area (carotid artery plaques, controls 35.3 ± 8.2%) was 7.6 ± 4.5% and the “plaque volume throughout the carotid arteries” value (controls 1.75 ± 0.33) was 0.46 ± 0.13 *10^7 µm^3. The “aortic root plaque volume” value (controls 11.8 ± 1.2) was 7.4 ± 0.7 *10^7 µm^3, the “macrophage positive area of the carotid artery plaques (MOMA2)” value (controls 22.3 ± 4.1) was 6.2 ± 2.5 *10^3 µm^2 and the “relative macrophage content (corrected for lesion size), carotid artery” value (controls 46 ± 4%) was 25 ± 8%. The “macrophage positive area, aortic root” value (controls 92.0 ± 15.6) was 37.2 ± 8.7 *10^3 µm^2, the “aortic root average plaque size” value (controls 215.9 ± 24.6) was 157.0 ± 15.7 *10^3 µm^2 and the “reduction in carotid artery lesion size” value (mouse, in vivo) was “more than 70%”. For the same compound, the “change in carotid artery plaque size versus control” value (site of maximal stenosis) was −73%.
